Laboratory results taken from ChEMBL document CHEMBL1132085, “Analogues of 4,5-bis(3,5-dichlorophenyl)-2-trifluoromethyl-1H-imidazole as potential antibacterial agents” (1999).
In brackets after ≈: the same amount, converted by molar mass.

Legend:
Format in all cases: functional
Bacillus subtilis = assay: Antibacterial activity against Bacillus subtilis (Bs)
Staphylococcus aureus = assay: Antibacterial activity against methicillin resistant Staphylococcus aureus (MRSA)
Escherichia coli [1] = assay: Antibacterial activity against Escherichia coli (Ec)
Escherichia coli [2] = assay: Antibacterial activity against Escherichia coli +polymyxin (Ec+)

| Compound | MIC (Bacillus subtilis) [µg/mL] | MIC (Staphylococcus aureus) [µg/mL] | MIC (Escherichia coli [1]) [µg/mL] | MIC (Escherichia coli [2]) [µg/mL] |
| --- | --- | --- | --- | --- |
| FC(F)(F)c1nc(-c2cc(Cl)cc(Cl)c2)c(-c2cc(Cl)cc(Cl)c2)[nH]1 | 4 (≈ 9.39 µM) | 0.25 (≈ 0.587 µM) | > 32 | 16 (≈ 37.6 µM) |
| CSc1nc(-c2cc(Cl)cc(Cl)c2)c(-c2cc(Cl)cc(Cl)c2)[nH]1 | > 32 | > 32 | > 32 | > 32 |
| Clc1cc(Cl)cc(-c2nc[nH]c2-c2cc(Cl)cc(Cl)c2)c1 | 4 (≈ 11.2 µM) | > 32 | > 32 | 8 (≈ 22.3 µM) |
| CCNC(=O)c1nc(-c2cc(Cl)cc(Cl)c2)c(-c2cc(Cl)cc(Cl)c2)[nH]1 | > 32 | > 32 | > 32 | > 32 |
| COC(=O)c1nc(-c2cc(Cl)cc(Cl)c2)c(-c2cc(Cl)cc(Cl)c2)[nH]1 | > 32 | > 32 | > 32 | > 32 |
| Oc1nc(-c2cc(Cl)cc(Cl)c2)c(-c2cc(Cl)cc(Cl)c2)[nH]1 | 4 (≈ 10.7 µM) | 8 (≈ 21.4 µM) | > 32 | 8 (≈ 21.4 µM) |
| Cc1nc(-c2cc(Cl)cc(Cl)c2)c(-c2cc(Cl)cc(Cl)c2)[nH]1 | > 32 | > 32 | > 32 | > 32 |
| CS(=O)(=O)c1nc(-c2cc(Cl)cc(Cl)c2)c(-c2cc(Cl)cc(Cl)c2)[nH]1 | 4 (≈ 9.17 µM) | 4 (≈ 9.17 µM) | > 32 | 4 (≈ 9.17 µM) |
| Nc1nc(-c2cc(Cl)cc(Cl)c2)c(-c2cc(Cl)cc(Cl)c2)[nH]1 | 4 (≈ 10.7 µM) | 2 (≈ 5.36 µM) | > 32 | 8 (≈ 21.4 µM) |
| FC(F)(F)c1nc(-c2cc(Cl)cc(Cl)c2)c[nH]1 | 16 (≈ 56.9 µM) | 16 (≈ 56.9 µM) | > 32 | 8 (≈ 28.5 µM) |
| Cn1c(C(F)(F)F)nc(-c2cc(Cl)cc(Cl)c2)c1-c1cc(Cl)cc(Cl)c1 | 4 (≈ 9.09 µM) | 8 (≈ 18.2 µM) | > 32 | > 32 |
| O=Cc1nc(-c2cc(Cl)cc(Cl)c2)c(-c2cc(Cl)cc(Cl)c2)[nH]1 | 2 (≈ 5.18 µM) | 2 (≈ 5.18 µM) | > 32 | > 32 |
| Sc1nc(-c2cc(Cl)cc(Cl)c2)c(-c2cc(Cl)cc(Cl)c2)[nH]1 | > 32 | > 32 | > 32 | > 32 |
